Measured values as given in US8513227B2, “Inhibition of inflammatory cytokine production with tanshinones” (The Feinstein Institute for Medical Research, priority 2006, dated 2013).
pIC50: −log10 of the molar value.

How the values were obtained:
HMGB1 [1] = assay: LPS-induced HMGB1 release in RAW 264.7 macrophage cultures (western blot); assay type: cell-based, murine
Description: Cell culture. […] Rendon-Mitchell et al. 2003). Murine macrophages were pre-cultured in RPMI 1640 medium (Gibco BRL, Grand Island, N.Y.) supplemented with 10% fetal bovine serum (FBS) and 2 mmol/L glutamine. Human peripheral blood mononuclear cells (HuPBMCs) were isolated from the blood of healthy donors (Long Island Blood Bank, Melville, N.Y.) by density gradient centrifugation through Ficoll (Ficoll-Paque PLUS, Pharmacia, Piscataway, N.J.), and cultured in RPMI 1640 supplemented with 10% heat-inactivated human serum/0.2 mM L-glutamine as previously described (Rendon-Mitchell et al. 2003). LPS stimulation. Adherent macrophages or monocytes were gently washed with, and cultured in, serum-free OPTI-MEM I medium two hours before stimulation with bacterial endotoxin (lipopolysaccharide, LPS, E. coli 0111:B4, Sigma-Aldrich). […] Rendon-Mitchell et al. 2003; Wang et al. 1999). HMGB1 western blotting analysis. The levels of HMGB1 in the culture medium or serum were determined by western blotting analysis as previously described (Chen et al. 2004; Rendon-Mitchell et al. 2003; Wang et al. 1999). The relative band intensity was quantified using NIH image 1.59 software to determine HMGB1 levels with reference to standard curves generated with purified HMGB1.

HMGB1 [2] = assay: LPS-induced HMGB1 release in murine peritoneal macrophages; assay type: cell-based; conditions: data not shown
Experimental: Cell culture. Murine macrophage-like RAW 264.7 cells were obtained from the American Type Culture Collection (ATCC, Rockville, Md.), and primary peritoneal macrophages were isolated from Balb/C mice (male, 7-8 weeks, 20-25 grams) at 2-3 days after intraperitoneal injection of 2 ml thioglycollate broth (4%) as previously described (Chen et al. 2004; Rendon-Mitchell et al. 2003). Murine macrophages were pre-cultured in RPMI 1640 medium (Gibco BRL, Grand Island, N.Y.) supplemented with 10% fetal bovine serum (FBS) and 2 mmol/L glutamine. […]
LPS stimulation. […] At 16 hours after LPS stimulation, levels of HMGB1 in the culture medium were determined as previously described (Chen et al. 2004; Rendon-Mitchell et al. 2003; Wang et al. 1999).
(§1) HMGB1 western blotting analysis. The levels of HMGB1 in the culture medium or serum were determined by western blotting analysis as previously described (Chen et al. 2004; Rendon-Mitchell et al. 2003; Wang et al. 1999). The relative band intensity was quantified using NIH image 1.59 software to determine HMGB1 levels with reference to standard curves generated with purified HMGB1.

62 cytokines = assay: Cytokine antibody array of LPS-stimulated macrophage culture medium; assay type: cell-based, murine
Experimental: Cytokine antibody array. Murine cytokine antibody array (Cat. No. M0308003, RayBiotech Inc., Norcross, Ga., USA), which detects 62 cytokines on one membrane, was used to determine the profile of cytokines in the culture medium following the manufacturer's instructions. Briefly, the membranes were sequentially incubated with equal volume of cell-conditioned culture medium, primary biotin-conjugated antibody, and horseradish peroxidase-conjugated streptavidin. After exposing to X-ray film, the relative signal intensity was determined using the NIH image 1.59 software with reference to the positive controls on the membrane.

HMGB1 [3] = assay: Endotoxin-induced HMGB1 cytoplasmic translocation (immunocytochemistry, cell fractionation/western blot); assay type: cell-based, murine
Experimental: Immunocytochemistry and cell fractionation/western blot. At 16 h after LPS stimulation, cellular HMGB1 was immunostained with anti-HMGB1 polyclonal antibodies, and images were acquired using fluorescent microscope (Carl Zeiss Microimaging, Inc., Thomwood, N.Y.) as previously described (Chen et al. 2004; Rendon-Mitchell et al. 2003). Alternatively, localization of HMGB1 was examined by a cell fractionation/western blotting technique as previously described (Tang et al. 2006). Cell fractionation is based on differential lysis of plasma and nuclear membranes by nonionic detergent (NP-40). Briefly, after selective lysis of the plasma membrane in low salt buffer (10 mM HEPES, pH 7.9; 10 mM KCl; 0.1 mM EDTA; 0.1 mM EGTA; 1 mM DTT; 0.5 mM PMSF, 1% NP-40), the intact nuclei was collected by a quick centrifugation step (7,000 g, 1 min, 4° C.), leaving the cytoplasmic fraction in the supernatant. The nuclei pellet was resuspended in NP-40 high salt buffer (20 mM HEPES, pH 7.9; 0.4 M NaCl; 1 mM EDTA; 1 mM EGTA; 1 mM DTT; 1 mM PMSF, 1% NP-40), and briefly sonicated to generate the nuclear fraction. After fractionation, the protein content of different fractions was determined by the Bradford method, and each fraction was assayed for levels of various protein by western blotting analysis using primary antibodies specific for HMGB1, a cytoplasmic protein (βactin, Santa Cruz Biotechnology), and a nuclear protein (PCNA, BD Biosciences).

lethal endotoxemia = assay: Lethal endotoxemia in Balb/C mice (LPS 15 mg/kg i.p.); assay type: in vivo
Experimental: Animal models of endotoxemia and sepsis. This study was approved and performed in accordance with the guidelines for the care and use of laboratory animals at the Feinstein Institute for Medical Research, Manhasset, N.Y. Endotoxemia was induced in Balb/C mice (male, 7-8 weeks) by intraperitoneal injection of bacterial endotoxin (LPS, 15 mg/kg) as previously described (Chen et al. 2005; Wang et al. 1999; Wang et al. 2006). Sepsis was induced in male Balb/C mice (7-8 weeks, 20-25 g) or Sprague-Dawley rats (290-310 g) by cecal ligation and puncture (CLP) as previously described (Wang et al. 2006; Yang et al. 2002b). Herbal components were administered intraperitoneally into mice at indicated doses and time points, and mice were monitored for survival for up to two weeks. In parallel experiments, mice were euthanized to collect blood at 28 h (following two doses of herbal components at −0.5 and +24 h) after endotoxemia, and at 52 h (following two doses of herbal components at +24 and +48 h) after CLP.
as §1

SMILES: Cc1c(S(=O)(=O)[O-])oc2c1C(=O)C(=O)c1c-2ccc2c1CCCC2(C)C.[Na+] [TSNIIA-SS, tanshinone IIA sodium sulfonate]
- effect on LPS-induced HMGB1 release (HMGB1 [1]; 100 μM): completely abrogated
- pIC50 (HMGB1 [1]; RAW 264.7 cells, 16 h after LPS, western blot, estimated, read-out: estimated IC50 for LPS-induced HMGB1 release): > 5.30
- inhibition of HMGB1 release on delayed addition (HMGB1 [1]; added 2 to 6 h after LPS, 25 or 50 μM, HMGB1 at 16 h): significant inhibition was retained
- effect on LPS-induced HMGB1 release (HMGB1 [2]): effectively inhibited
- attenuation of LPS-induced release of IL-1α (62 cytokines; 100 μM, cytokine array): 50±7%
- attenuation of LPS-induced release of IL-12p70 (62 cytokines; 100 μM, cytokine array): 45±5%
- attenuation of LPS-induced release of MCP-5 (62 cytokines; 100 μM, cytokine array): 25±5%
- attenuation of LPS-induced release of platelet factor 4 (PF-4) (62 cytokines; 100 μM, cytokine array): 35±6%
- effect on release of most cytokines, including IL-6, IL-12p40/p70, KC, MCP-1, MIP-1α, MIP-1γ, MIP-2 and TNF (62 cytokines; 100 μM, RAW 264.7 cells or primary peritoneal macrophages): did not suppress
- number of other cytokines whose release is not affected (62 cytokines; at concentrations that completely abrogate LPS-induced HMGB1 release): 58 out of 62
- levels of HMGB1 in the cytoplasmic fractions after LPS (HMGB1 [3]; cell fractionation/western blot, FIG. 4B): dramatically reduced
- effect on LPS-induced HMGB1 cytoplasmic translocation (HMGB1 [3]; immunostaining 16 h post LPS, 100 μM, FIG. 4A): almost completely abrogated
- effect on nuclear localization of HMGB1 in resting cells (HMGB1 [3]; resting cells, data not shown): did not affect
- circulating HMGB1 levels, endotoxemia (lethal endotoxemia; LPS+vehicle 140±20 ng/ml, n=10, p<0.01): 40 ± 25 ng/mL
- animal survival, lethal endotoxemia (lethal endotoxemia; repeated doses (+0.5, +24, +48, 72 hr), dose-dependent, control 20%, FIG. 6A): 80%
- animal survival rate, lethal endotoxemia (lethal endotoxemia; single dose 15 mg/kg 30 minutes after LPS, saline control 25%, P>0.05): 37.5%
